Consider two compounds from patent US7122624B2, “Parathyroid hormone receptor ligands” (The United States of America as represented by the …, priority 1999, dated 2006).

Like-named read-outs stand apart in the source and are kept apart here. Non-standard residues stand in square brackets, D forms with d. Residues, ends and D or L forms follow the SMILES beside them. Tyr(3-I) = N[C@@H](Cc1ccc(O)c(I)c1)C(=O)O

Set-up in all cases: expressed in transfected cells
The target in one assay is PTH2 receptor (Homo sapiens, UniProt P49190). In words: cAMP accumulation in HEK293 cells stably expressing the human PTH2 receptor (293PTH2). It counts as cell-based. The settings on record: 1 μM peptide.
Assay [1] concerns the target T1, human PTH1 receptor (Homo sapiens, UniProt Q03431).
T1 sequence (Q03431 27-593): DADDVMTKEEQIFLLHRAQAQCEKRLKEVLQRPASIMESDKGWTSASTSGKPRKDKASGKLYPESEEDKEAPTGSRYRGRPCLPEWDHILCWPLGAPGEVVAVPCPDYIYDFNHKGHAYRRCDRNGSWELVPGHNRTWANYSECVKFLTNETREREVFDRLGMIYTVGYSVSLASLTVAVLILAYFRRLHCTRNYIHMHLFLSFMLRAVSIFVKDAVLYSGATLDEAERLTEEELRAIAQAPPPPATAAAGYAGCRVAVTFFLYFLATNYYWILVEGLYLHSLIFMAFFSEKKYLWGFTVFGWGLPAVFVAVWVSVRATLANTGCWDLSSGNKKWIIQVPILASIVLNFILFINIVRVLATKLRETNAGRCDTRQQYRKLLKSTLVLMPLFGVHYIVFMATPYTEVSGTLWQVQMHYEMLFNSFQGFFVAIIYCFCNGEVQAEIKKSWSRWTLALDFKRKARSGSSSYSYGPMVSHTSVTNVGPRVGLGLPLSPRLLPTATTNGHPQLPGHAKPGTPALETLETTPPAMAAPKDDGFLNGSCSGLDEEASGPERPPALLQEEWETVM
Nature of the assay: cAMP accumulation in HEK293 cells stably expressing the human PTH1 receptor (293PTH1). It counts as cell-based. Conditions: 1 μM peptide.

Assay [2] deals with T1, human PTH1 receptor. In words: [125I]TIP(7–39) saturation and kinetic binding to the human PTH1 receptor in HEK293 cell membranes. On the procedure: Binding of [^125I]TIP(7–39) to HEK293 membranes expressing the PTH1 receptor (FIGS. 21 and 22) was performed using rapid filtration to separate bound and free radioligand as described in Examples, using the assay buffer described above. Incubations were carried out in 96-well polypropylene plates. The incubation mixture was transferred to a polyvinylidene fluoride filtration plate (MAHVN45, Millipore, Bedford, Mass.) and the membranes collected by rapid filtration using a Millipore Multiscreen vacuum manifold. In saturation experiments, varying concentrations of [^125I]TIP(7–39) were incubated in triplicate with 10 μg membranes in the absence or presence of 1 μM unlabeled TIP(7–39) (for measurement of total binding and non-specific binding, respectively) for 1 hour at 21° C. In radioligand association experiments, radioligand and buffer were brought to 21° C. by incubation in a water bath for 15 minutes. Similarly pre-warmed membranes were then added to the wells at various time points and the assay wells harvested simultaneously. Non-specific binding in these experiments was defined using 300 nM unlabeled TIP(7–39), incubated with membranes and radioligand for 1 minute and 60 minutes. In the experiment in FIG. 23 a second, unlabeled ligand was included in the assay incubation in order to estimate the association and dissociation rate constants of the unlabeled ligand (see below). In dissociation experiments radioligand and membranes were equilibrated for 60 minutes prior to addition of unlabeled TIP(7–39) (300 nM final concentration) at various time points. All time points were harvested simultaneously. (As a result the shorter time points of the time course were equilibrated with radioligand for between 1 and 2 hours.) Non-specific binding was defined using 300 nM unlabeled TIP(7–39), which was included in the equilibration phase of the assay.
[^125I]TIP(7–39) saturation of the PTH1 receptor was analyzed as follows: First, non-specific binding (measured in the presence of 1 μM TIP(7–39)) was estimated as a fraction of the free radioligand concentration by linear regression. The values of KD and Bmax were obtained by fitting total binding data (measured in the absence of unlabeled ligand) to the following equation using Prism 2.01:
[^125I]TIP(7–39) association data (total binding) were fitted to a bi-exponential association equation to account for association to specific and non-specific sites (FIG. 23). This procedure was used because the value of non-specific binding measured after 60 minutes was slightly greater than the value measured after 1 minute. In the analysis the equilibrium level of non-specific binding was fixed at that measured at 60 minutes. The observed association rate constant for non-specific binding was high (>2 min^−1). The observed association rate of specific radioligand (L) binding (kon(obs)) was fitted by linear regression to the equation kon(obs)=koff+kon[L] where kon and koff are the association and dissociation rate constants respectively. [^125I]TIP(7–39) dissociation data were fitted to a mono-exponential dissociation equation.
The association and dissociation rate constants of unlabeled ligands were determined using the method devised by Motulsky and Mahan, Mol Pharmacol 25, 1–9, 1984, in which association of a radiolabeled antagonist ([^125I]TIP(7–39)) is measured in the presence of a fixed concentration of the unlabeled ligand. […]

Chain of PTH2 receptor (P49190 25-550): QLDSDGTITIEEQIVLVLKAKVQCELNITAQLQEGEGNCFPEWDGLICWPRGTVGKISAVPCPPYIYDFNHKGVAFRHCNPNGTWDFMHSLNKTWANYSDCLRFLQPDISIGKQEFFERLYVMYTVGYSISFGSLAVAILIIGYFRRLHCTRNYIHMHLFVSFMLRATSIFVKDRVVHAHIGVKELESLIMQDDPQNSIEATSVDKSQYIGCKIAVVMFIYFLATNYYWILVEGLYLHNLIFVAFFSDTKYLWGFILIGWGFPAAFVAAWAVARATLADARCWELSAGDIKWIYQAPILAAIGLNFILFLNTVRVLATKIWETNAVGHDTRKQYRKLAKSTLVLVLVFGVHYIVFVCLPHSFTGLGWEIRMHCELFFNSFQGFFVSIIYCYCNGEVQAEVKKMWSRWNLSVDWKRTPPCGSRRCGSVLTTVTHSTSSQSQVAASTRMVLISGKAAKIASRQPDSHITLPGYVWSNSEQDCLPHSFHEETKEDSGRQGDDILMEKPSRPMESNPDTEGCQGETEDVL
Experimental for PTH2 receptor: COS-7 cells were grown as previously described in Clark et al. For cAMP accumulation assays COS-7 cells were transfected as previously described in Clark et al. except that transfections were performed in 10 cm tissue culture dishes using 10 μg of plasmid DNA. The cells were transferred following trypsinization to 96-well plates at a density of 50,000 cells/well the following day. Cells were used for cAMP accumulation assays three days after transfection.
Ligand-stimulated accumulation of cAMP was measured as described in Examples, using a radioimmunoassay to quantify cAMP (Clark et al., supra).
For cAMP accumulation data y is the amount of cAMP produced at a given peptide concentration, min is the cAMP level in the absence of ligand and max is the maximum level produced. […] Statistical comparison of multiple means was performed initially by single-factor analysis of variance followed by post-hoc analysis with the Newman-Keuls test. Statistical comparison of two means was performed using a two-tailed Student's t-test.

With `CC[C@H](C)[C@H](NC(=O)[C@H](CCC(=O)O)NC(=O)[C@H](CO)NC(=O)[C@@H](NC(=O)[C@H](C)N)C(C)C)C(=O)N[C@@H](CCC(N)=O)C(=O)N[C@@H](CC(C)C)C(=O)N[C@@H](CCSC)C(=O)N[C@@H](Cc1c[nH]cn1)C(=O)N[C@@H](CC(N)=O)C(=O)N[C@@H](CC(C)C)C(=O)NCC(=O)N[C@@H](CCCCN)C(=O)N[C@@H](Cc1c[nH]cn1)C(=O)N[C@@H](CC(C)C)C(=O)N[C@@H](C)C(=O)N[C@@H](CO)C(=O)N[C@H](C(=O)N[C@@H](CCC(=O)O)C(=O)N[C@@H](CCCNC(=N)N)C(=O)N[C@@H](CCSC)C(=O)N[C@@H](CCC(N)=O)C(=O)N[C@@H](Cc1c[nH]c2ccccc12)C(=O)N[C@@H](CC(C)C)C(=O)N[C@@H](CCCNC(=N)N)C(=O)N[C@@H](CCCCN)C(=O)N[C@@H](CCCCN)C(=O)N[C@@H](CC(C)C)C(=O)N[C@@H](CCC(N)=O)C(=O)N[C@@H](CC(=O)O)C(=O)N[C@H](C(=O)N[C@@H](Cc1c[nH]cn1)C(=O)N[C@@H](CC(N)=O)C(=O)N[C@@H](Cc1ccccc1)C(=O)O)C(C)C)C(C)C` [PTH], the “stimulation of cAMP accumulation” value on PTH2 receptor and at human PTH1 receptor [1] was “approximately 50 fold” throughout.
Consider `CSCC[C@H](NC(=O)[C@H](Cc1ccc(O)c(I)c1)NC(=O)[C@H](CO)NC(=O)[C@H](CC(N)=O)NC(=O)[C@H](CC(C)C)NC(=O)[C@H](Cc1c[nH]c2ccccc12)NC(=O)[C@H](Cc1c[nH]cn1)NC(=O)[C@H](CCCNC(=N)N)NC(=O)[C@H](CCCNC(=N)N)NC(=O)[C@H](CCC(=O)O)NC(=O)[C@H](CC(C)C)NC(=O)[C@H](C)NC(=O)[C@H](C)NC(=O)[C@H](CC(C)C)NC(=O)[C@H](CC(C)C)NC(=O)[C@H](CCCNC(=N)N)NC(=O)[C@H](C)NC(=O)[C@H](CCCNC(=N)N)NC(=O)[C@H](CCC(=O)O)NC(=O)[C@H](CCCNC(=N)N)NC(=O)[C@H](Cc1ccccc1)NC(=O)[C@H](C)NC(=O)[C@H](C)NC(=O)[C@@H](N)CC(=O)O)C(=O)N[C@@H](Cc1c[nH]cn1)C(=O)N[C@@H](CCCCN)C(=O)N[C@@H](CC(C)C)C(=O)N[C@@H](CC(C)C)C(=O)N[C@H](C(=O)N[C@@H](CC(C)C)C(=O)N[C@@H](CC(=O)O)C(=O)N[C@@H](C)C(=O)N1CCC[C@H]1C(=O)O)C(C)C` [[^125I]TIP(7–39)] (H-DAAFRERARLLAALERRHWLNS[Tyr(3-I)]MHKLLVLDAP-OH; N-terminus and C-terminus assumed), for which the koff on human PTH1 receptor [2] (directly measured from dissociation time course, read-out: dissociation rate constant (k2) (converted)) was 0.00085 s⁻¹; at human PTH1 receptor [2] (estimate from the plot of kon(obs) vs. concentration of radioligand, read-out: dissociation rate constant (converted)) it was 0.00128 s⁻¹. For the same compound, the kon on human PTH1 receptor [2] (held constant in Equation 4 analysis, read-out: association rate constant (k1) (converted)) was 1.48e+06 M⁻¹ s⁻¹. Further, the Bmax on human PTH1 receptor [2] (saturation experiments, n=3) was 1.3 ± 0.1 pmol/mg.
